From US5583108A, “Vasonatrin peptide and analogs thereof” (Mayo Foundation for Medical Education and Research, priority 1994, dated 1996)

Key:
[1] = tested on: normal rats; experiment: Cardiorenal actions after intravenous bolus in anesthetized normal rats; type: in vivo, Wistar rats; conditions: for MAP mean arterial pressure / HR heart rate / RAP right atrial pressure / UKV urine potassium excretion / UNaV urine sodium excretion / UV urine volume / UcGMPV urine cGMP volume / PcGMP plasma cGMP: mean ± SEM; for MAP mean arterial pressure: n = 4
Protocol: (§1) The results obtained are expressed as the means ±SEM. In organ chamber studies, n equals the number of dogs from which rings were taken. Rings with and without endothelium were studied in parallel, and Student's t-test for unpaired observations was used to determine statistical significance among the responses of rings with and without endothelium and between responses of arteries and veins. In rat studies, the data were analyzed using ANOVA for repeated measures followed by Fisher's least significant difference test when appropriate within the group. Data between groups were analyzed by Student's unpaired t-test. Statistical significance was determined at p<0.05.
Experiments were conducted in accordance with the Animal Welfare Act. Wistar rats and spontaneously hypertensive rats (SHR) (400 g; Harlan Sprague-Dawley, Indianapolis, Ind.) were anesthetized with Inactin (100 mg/kg; intraperitoneal; BYK Gulden, Konstanz, Germany). The body temperature was maintained between 36° and 38° C. by a heating pad. Tracheostomy was performed; however, the animals were not artificially ventilated. Polyethylene catheters (PE-50; Becton Dickinson Co., Parsippany, N.J.) were placed in the left Jugular vein for infusions of saline and drugs, in the right jugular vein to right atrium to monitor right atrial pressure, and in the carotid artery for the collection of blood samples and to monitor mean arterial pressure. A PE-90 catheter was placed in the bladder for urine collection.
Experiments were conducted in three groups in normal rats: ANP group (n=4), CNP group (n=4), and VNP group (n=4). VNP also was studied in SHR rats (n=4). Intravenous infusions of saline solution (0.9% NaCl) were performed (1 ml/100 gm body weight/hr) through the left jugular vein catheter. After completion of surgery, rats were allowed to stabilize for 30 minutes. In each group, a 15-min baseline period followed. After the baseline period, saline solution (0.9% NaCl) was administered in a bolus fashion (0.1 ml) and was followed by a 15-min period. After the saline period, the peptide (ANP, CNP or VNP) was administered in a bolus fashion (0.1 ml) at 5 μg/kg which was followed by a 15-min period. This was followed by a second bolus (0.1 ml) at 50 μg/kg and a 15-min period. After a 30-min washout, a 15-min recovery period followed. During each experimental period, mean arterial pressure (MAP), heart rate (HR), and right atrial pressure (RAP) were measured. At the midpoint of baseline, second bolus fashion (50 μg/kg) and recovery periods, blood was sampled for plasma cGMP. At the end of each period, urine was measured for volume (UV), and samples were stored for electrolytes and cGMP analysis.
Blood for plasma cGMP analysis was collected into EDTA tubes, immediately placed on ice, and centrifuged at […] at 4° C. Plasma was separated and stored at -20° C. until assay. Urine for cGMP determination was heated to >90° C. before storage. Plasma and urine cGMP were determined by a specific RIA as previously described by A. L. Steiner et al., J. Hypertension, 5 (Suppl. 5) 551-553 (1987).

[2] = tested on: isolated normal canine blood vessels; experiment: Organ chamber isometric force: relaxation of phenylephrine-contracted vessel rings; design: species or system dog; conditions: for relaxation: maximal dose (3×10^-6 M); for maximal response, percent change in tension from a contraction to phenylephrine: peptide 3 × 10^-6 M, mean ± SEM
Protocol: as §1
Rings cut from femoral, saphenous, renal and pulmonary arteries and veins obtained from random source mongrel dogs (anesthetized with 30 mg/kg pentobarbital sodium intravenously) were suspended for the measurement of isometric force in organ chambers filled with aerated (95% O2 and 5% CO2) modified Krebs-Ringer bicarbonate solution (composition in mM: 118.3 NaCl, 4.7 KCl, 2.5 CaCl2, 1.2 MgSO4, 1.2 KH2 PO4, 25.0 NaHCO3, 0.026 calcium sodium EDTA, and 11.1 dextrose; control solution) at 37° C. In one-half rings, the endothelium was removed by gently rubbing the intimal surface with a cotton swab wetted with control solution. Each ring was stretched to the optimal point on its length-tension curve as determined by the tension developed to norepinephrine (3×10^-7 M) at each level of stretch. The presence of endothelium was determined at the beginning of the experiment by a relaxation to acetylcholine (10^-6 M) during a contraction to norepinephrine at optimal length. The maximal tension of each ring was determined by norepinephrine (10^-4 M). To study responses to ANP, CNP and VNP, the rings were contracted with phenylephrine (10^-6 M). These contractions averaged 30-40% of the maximal contraction to norepinephrine. The peptides were added cumulatively once the contraction had stabilized.
The following commercially available drugs were used: acetylcholine chloride (Sigma Chemical, St. Louis, Mo.), human ANP and human CNP (Peninsula Laboratories, Belmont, Calif.), L-norepinephrine bitartrate (Sigma), phenylephrine bitartrate (Sigma). All drugs were dissolved in distilled water immediately prior to study, and the concentrations are reported as the final molar concentration (M) in the organ chamber.

[3] = normal rats, high dose (50 μg/kg) bolus

Compound: CC[C@H](C)[C@@H]1NC(=O)[C@H](CCCNC(=N)N)NC(=O)[C@H](CC(=O)O)NC(=O)[C@H](CC(C)C)NC(=O)[C@H](CCCCN)NC(=O)[C@H](CC(C)C)NC(=O)CNC(=O)[C@H](Cc2ccccc2)NC(=O)[C@@H](NC(=O)CNC(=O)[C@H](CCCCN)NC(=O)[C@H](CO)NC(=O)[C@H](CC(C)C)NC(=O)CN)CSSC[C@@H](C(=O)O)NC(=O)CNC(=O)[C@H](CC(C)C)NC(=O)CNC(=O)[C@H](CO)NC(=O)[C@H](CCSC)NC(=O)[C@H](CO)NC(=O)CNC1=O [CNP, C-type natriuretic peptide]
- natriuretic action (in words) ([1]; in vivo, rat): modest but significant natriuretic actions
- change in MAP and RAP (in words) [1, 3]: significant decrease
- change in urine flow, sodium excretion, plasma cGMP and urinary cGMP volume (in words) [1, 3]: increased
- MAP mean arterial pressure ([1]; normal rats, iv bolus 5 μg/kg, 15-min period): 100 ± 12 mmHg
- HR heart rate ([1]; normal rats, iv bolus 5 μg/kg): 363 ± 19 beats/min
- RAP right atrial pressure ([1]; normal rats, iv bolus 5 μg/kg): 0 ± 1.5 mmHg
- UKV urine potassium excretion ([1]; normal rats, iv bolus 5 μg/kg): 5.1 ± 1.6 µmol/min
- UNaV urine sodium excretion ([1]; normal rats, iv bolus 5 μg/kg): 4.1 ± 1.4 µmol/min
- UV urine volume ([1]; normal rats, iv bolus 5 μg/kg): 27.6 ± 2.0 µL/min
- UcGMPV urine cGMP volume ([1]; normal rats, iv bolus 5 μg/kg): 97 ± 32 pmol/min
- HR heart rate ([1]; normal rats, iv bolus 50 μg/kg): 365 ± 19 beats/min
- PcGMP plasma cGMP ([1]; normal rats, iv bolus 50 μg/kg): 19.4 ± 2.7 pmol/mL
- RAP right atrial pressure ([1]; normal rats, iv bolus 50 μg/kg): -2.3 ± 0.6 mmHg
- UKV urine potassium excretion ([1]; normal rats, iv bolus 50 μg/kg): 7.6 ± 2.5 µmol/min
- UNaV urine sodium excretion ([1]; normal rats, iv bolus 50 μg/kg): 12.1 ± 3.2 µmol/min
- UV urine volume ([1]; normal rats, iv bolus 50 μg/kg): 66.4 ± 7.4 µL/min
- UcGMPV urine cGMP volume ([1]; normal rats, iv bolus 50 μg/kg): 323 ± 81 pmol/min
- MAP mean arterial pressure ([1]; normal rats, recovery period after 30-min washout): 104 ± 11 mmHg
- HR heart rate ([1]; normal rats, recovery period): 363 ± 16 beats/min
- PcGMP plasma cGMP ([1]; normal rats, recovery period): 3.6 ± 0.3 pmol/mL
- RAP right atrial pressure ([1]; normal rats, recovery period): -0.1 ± 0.9 mmHg
- UKV urine potassium excretion ([1]; normal rats, recovery period): 2.4 ± 1.1 µmol/min
- UNaV urine sodium excretion ([1]; normal rats, recovery period): 2.9 ± 0.3 µmol/min
- UV urine volume ([1]; normal rats, recovery period): 21.2 ± 6.3 µL/min
- UcGMPV urine cGMP volume ([1]; normal rats, recovery period): 70 ± 39 pmol/min
- MAP mean arterial pressure ([1]; normal rats, second iv bolus 50 μg/kg, 15-min period): 87 ± 9 mmHg
- relaxation ([2]; femoral and saphenous arteries): no effects
- maximal response, percent change in tension from a contraction to phenylephrine ([2]; femoral artery, with endothelium, phenylephrine 10^-6 M): 4 ± 3%
- maximal response, percent change in tension from a contraction to phenylephrine ([2]; femoral artery, without endothelium): 10 ± 6%
- maximal response, percent change in tension from a contraction to phenylephrine ([2]; femoral vein, with endothelium): 37 ± 8%
- maximal response, percent change in tension from a contraction to phenylephrine ([2]; femoral vein, without endothelium): 73 ± 8%
- relaxation ([2]; femoral veins): 90%
- maximal response, percent change in tension from a contraction to phenylephrine ([2]; pulmonary artery, with endothelium): 12 ± 3%
- maximal response, percent change in tension from a contraction to phenylephrine ([2]; pulmonary artery, without endothelium): 33 ± 5%
- maximal response, percent change in tension from a contraction to phenylephrine ([2]; pulmonary vein, with endothelium): 31 ± 6%
- maximal response, percent change in tension from a contraction to phenylephrine ([2]; pulmonary vein, without endothelium): 66 ± 4%
- maximal response, percent change in tension from a contraction to phenylephrine ([2]; renal artery, with endothelium): 8 ± 2%
- maximal response, percent change in tension from a contraction to phenylephrine ([2]; renal artery, without endothelium): 8 ± 2%
- maximal response, percent change in tension from a contraction to phenylephrine ([2]; renal vein, with endothelium): 43 ± 4%
- maximal response, percent change in tension from a contraction to phenylephrine ([2]; renal vein, without endothelium): 71 ± 5%
- maximal response, percent change in tension from a contraction to phenylephrine ([2]; saphenous artery, with endothelium): 11 ± 7%
- maximal response, percent change in tension from a contraction to phenylephrine ([2]; saphenous artery, without endothelium): 14 ± 8%
- maximal response, percent change in tension from a contraction to phenylephrine ([2]; saphenous vein, with endothelium): 16 ± 1%
- maximal response, percent change in tension from a contraction to phenylephrine ([2]; saphenous vein, without endothelium): 43 ± 10%
- relaxation ([2]; saphenous veins): 40%
- relaxation, % of the contraction to phenylephrine ([2]; systemic arteries (femoral, saphenous and renal)): less than 30%
